Numbers after ± are expanded uncertainties.
Conditions: Liquid, Vibrating tube method

CCCCCCCCCCCC(=O)OC [methyl dodecanoate]
mass density [kg/m3]
Conditions	283.15 K	293.15 K	303.15 K	313.15 K	323.15 K	333.15 K	343.15 K	353.15 K	363.15 K
100 kPa	876.58 ± 0.9	869.3 ± 0.9	860.98 ± 0.89	853.31 ± 0.88	845.42 ± 0.87	837.89 ± 0.87	829.64 ± 0.86	821.96 ± 0.85	813.95 ± 0.84
1000 kPa	877.29 ± 0.9	869.79 ± 0.9	861.67 ± 0.89	853.78 ± 0.88	846.17 ± 0.87	838.44 ± 0.87	830.6 ± 0.86	822.7 ± 0.85	814.97 ± 0.85
3000 kPa	879.12 ± 0.91	871.19 ± 0.9	863.19 ± 0.89	855.32 ± 0.89	847.65 ± 0.88	840.13 ± 0.87	832.28 ± 0.86	824.65 ± 0.86	816.88 ± 0.85
5000 kPa	880.29 ± 0.91	872.09 ± 0.9	864.57 ± 0.9	856.78 ± 0.89	849.19 ± 0.88	841.69 ± 0.88	834.04 ± 0.87	826.36 ± 0.86	818.64 ± 0.86
10000 kPa	883.41 ± 0.92	875.46 ± 0.91	867.78 ± 0.91	860.3 ± 0.9	852.91 ± 0.89	845.49 ± 0.89	837.93 ± 0.88	830.59 ± 0.88	822.93 ± 0.87
15000 kPa	886.29 ± 0.93	878.42 ± 0.92	871.1 ± 0.92	863.63 ± 0.91	856.38 ± 0.9	849.14 ± 0.9	841.71 ± 0.89	834.55 ± 0.89	827.44 ± 0.88
20000 kPa	889.1 ± 0.94	881.47 ± 0.93	874.06 ± 0.92	866.74 ± 0.92	859.88 ± 0.91	852.7 ± 0.91	845.7 ± 0.91	838.32 ± 0.9	831.22 ± 0.9
25000 kPa	891.75 ± 0.94	884.32 ± 0.94	876.92 ± 0.93	870.04 ± 0.93	863.01 ± 0.93	856.12 ± 0.92	848.98 ± 0.92	842.04 ± 0.91	834.95 ± 0.91
30000 kPa	894.31 ± 0.95	887.1 ± 0.95	879.85 ± 0.94	872.94 ± 0.94	866.2 ± 0.94	859.27 ± 0.93	852.48 ± 0.93	845.62 ± 0.93	838.64 ± 0.92
35000 kPa	896.95 ± 0.96	889.69 ± 0.96	882.66 ± 0.95	875.68 ± 0.95	869.19 ± 0.95	862.4 ± 0.94	855.72 ± 0.94	849.06 ± 0.94	842.26 ± 0.94
40000 kPa	899.33 ± 0.97	892.27 ± 0.96	885.34 ± 0.96	878.33 ± 0.96	872.15 ± 0.96	865.66 ± 0.95	858.94 ± 0.95	853.14 ± 0.95	845.87 ± 0.95
50000 kPa	904.05 ± 0.98	897.52 ± 0.98	890.6 ± 0.98	883.95 ± 0.98	877.67 ± 0.98	871.36 ± 0.98	864.79 ± 0.98	858.49 ± 0.98	852.24 ± 0.98
60000 kPa	909.85 ± 0.99	901.95 ± 0.99	895.49 ± 0.99	888.91 ± 0.99	883.06 ± 1	876.77 ± 1	870.31 ± 1	864.35 ± 1	858.43 ± 1

— the NIST ThermoML archive (doi:10.1016/j.jct.2016.08.027)
